Values joined by “and” are separate entries in the source; they are usually repeats but may differ in a detail not shown here. Equal entries are not always repeated. Where two headings read alike, the source gives them in different places.
Columns and labels:
[1] = Chemical stability of Ga in different 50 mM buffers (HPLC gallium recovery); assay type: physicochemical
Method: The chemical stability of Ga in different 50 mM buffers was assessed including TRIS (pH 7.0), pyrrolidine (pH 11.3), citric acid (pH 5.0), borate (pH 8.0), formic acid (pH 2.5), phosphate (pH 7.3) and HEPES (pH 7.2). Three standard solutions of Ga in each buffer was assessed by HPLC analysis using the method described in Example 1 at four time points 0, 24, 48 and 100 h. Performance was measured by percentage gallium recovery according to the following formula: […]

[2] = Infinite dose mass balance study, gallium recovery from human skin; conditions: for Ga mass detected per skin surface area: nitrate hydrate
Method: An infinite dose mass balance study was performed using full thickness human skin. Small Franz cells were set up as previously described and the mass and thickness of skin section recorded. […] Cells were then treated with either […] iontophoresis or received no iontophoresis (n=6 for each). […] The skin samples were removed and reweighed.
(Cells dismantled after 0 and 60 h post iontophoresis).

[3] = Effect of speciation and ITP on gallium deposition within full thickness human skin; assay type: in vitro ADME
Method: An infinite dose skin deposition study was performed using full thickness human skin. Small Franz cells were constructed as previously described and the mass of skin section recorded. The Franz cells were set up with a receiver fluid of 0.05 M citric acid buffer (pH 5.0) and allowed to equilibrate for one hour. Donor solutions were prepared and 0.5 mL of each added to the appropriate Franz cell donor compartment. Each cell was subjected to either 60 min of ITP or an equivalent period of passive permeation. The cells were sacrificed after cither 60 min (directly after ITP, n=8) or after 25 h (24 h of permeation, n=8). […] The skin samples were removed and reweighed. […] The skin samples were then finely sliced using scissors, chilled and homogenised for five minutes using a T10 Ultra-Turax homogeniser (IKA werks, Staufen, Germany) using 30 second pulses. The scalpel blade, scissors, forceps and homogeniser blades were washed into the homogenate using PDCA mobile phase (five times concentrate) to minimise drug loss from the method. The skin-PDCA concentrate homogenate was allowed to mix for a further 24 h before being filtered using 0.45 μm, 30 mm cellulose acetate syringe filters (Orange Scientific, Braine l'Alleud, Belgium).

[4] = Gallium permeated through human cadaver skin, receptor analysis; assay type: in vitro ADME; conditions: any of the conditions tested
Method: Anodal and cathodal iontophoresis (0.3 mA/cm^2 for 15 min) were carried out using full thickness human cadaver skin in Franz diffusion cells. Ga nitrate solutions (0.15% in 0.05M citrate buffer, or a saturated solution of 16.6% in 0.1M/1M citrate buffer) at different pH conditions (2 to 8) were evaluated.

collagen synthesis = conditions: cited from earlier work
[5] = Ionto (400 μA, 60 min) 0 h, 1.5% w/v
[6] = Ionto (400 μA, 60 min) 60 h, 1.5% w/v

For `O=[N+]([O-])[O-].O=[N+]([O-])[O-].O=[N+]([O-])[O-].[Ga+3]` [gallium nitrate, Gallium (III) nitrate hydrate], the “Ga loss after 100 h” value ([1]; 0.25 mg/ml Ga in pyrrolidine buffer, P<0.05, ANOVA) was “significant Ga loss”, the “[Ga] mg/ml recovered” value ([1]; Borate (pH 8.0) 50 mM, listed as Ga, nitrate hydrate) was “no peaks observed” and the “[Ga] mg/ml recovered” value ([1]; Citric acid (pH 5.0) 50 mM, target conc. 0.13 mg/ml) was 0.15 mg/mL. For the same compound, the “[Ga] mg/ml recovered” value ([1]; Citric acid (pH 5.0) 50 mM, target conc. 0.25 mg/ml) was 0.28 mg/mL, the “[Ga] mg/ml recovered” value ([1]; Citric acid (pH 5.0) 50 mM, target conc. 0.5 mg/ml) was 0.54 mg/mL and the “[Ga] mg/ml recovered” value ([1]; Formic acid (pH 2.5) 50 mM, target conc. 0.13 mg/ml) was 0.16 mg/mL. For the same compound, the “[Ga] mg/ml recovered” value ([1]; Formic acid (pH 2.5) 50 mM, target conc. 0.25 mg/ml) was 0.29 mg/mL, the “[Ga] mg/ml recovered” value ([1]; Formic acid (pH 2.5) 50 mM, target conc. 0.5 mg/ml) was 0.55 mg/mL and the “[Ga] mg/ml recovered” value ([1]; HEPES (pH 7.2) 50 mM, target conc. 0.13 mg/ml) was 0.10 mg/mL. The “[Ga] mg/ml recovered” value ([1]; HEPES (pH 7.2) 50 mM, target conc. 0.25 mg/ml) was 0.06 mg/mL, the “[Ga] mg/ml recovered” value ([1]; HEPES (pH 7.2) 50 mM, target conc. 0.5 mg/ml) was 0.13 mg/mL and the “[Ga] mg/ml recovered” value ([1]; Phosphate (pH 7.3) 50 mM, target conc. 0.13 mg/ml) was 0.04 mg/mL. For the same compound, the “[Ga] mg/ml recovered” value ([1]; Phosphate (pH 7.3) 50 mM, target conc. 0.25 mg/ml) was 0.11 mg/mL, the “[Ga] mg/ml recovered” value ([1]; Phosphate (pH 7.3) 50 mM, target conc. 0.5 mg/ml) was 0.30 mg/mL and the “[Ga] mg/ml recovered” value ([1]; Pyrrolidine (pH 11.3) 50 mM, target conc. 0.13 mg/ml) was 0.13 mg/mL. For the same compound, the “[Ga] mg/ml recovered” value ([1]; Pyrrolidine (pH 11.3) 50 mM, target conc. 0.25 mg/ml) was 0.25 mg/mL, the “[Ga] mg/ml recovered” value ([1]; Pyrrolidine (pH 11.3) 50 mM, target conc. 0.5 mg/ml) was 0.49 mg/mL and the “[Ga] mg/ml recovered” value ([1]; TRIS (pH 7.0) 50 mM, target conc. 0.13 mg/ml) was 0.01 mg/mL. For the same compound, the “[Ga] mg/ml recovered” value ([1]; TRIS (pH 7.0) 50 mM, target conc. 0.25 mg/ml) was 0.13 mg/mL, the “[Ga] mg/ml recovered” value ([1]; TRIS (pH 7.0) 50 mM, target conc. 0.5 mg/ml) was 0.49 mg/mL and the “Ga loss between 0 and 100 h” value ([1]; citric or formic acid buffer, P>0.05, ANOVA) was “No significant Ga loss”. For the same compound, the “Ga mass detected, full thickness human skin” value [2, 5] was 0.0788 ± 0.043 mg, the “Ga mass detected, skin corrected for binding” value (shortened to “Ga mass detected … for binding”) [2, 5] was 0.127 ± 0.043 mg and the “Ga mass detected per skin surface area” value ([2]; Ionto (400 μA, 60 min) 0 h, 1.5% w/v, listed as Ga) was 0.200 ± 0.069 mg/cm^2. The “Ga mass detected per skin surface area” value [2, 5] was 0.200±0.069 mg/cm^2, the “Ga mass detected, full thickness human skin” value [2, 6] was 0.328 ± 0.371 mg and the “Ga mass detected … for binding” value [2, 6] was 0.391 ± 0.373 mg. For the same compound, the “Ga mass detected per skin surface area” value ([2]; Ionto (400 μA, 60 min) 60 h, 1.5% w/v, listed as Ga) was 0.617 ± 0.059 mg/cm^2, the “Ga mass detected per skin surface area” value [2, 6] was 0.617±0.059 mg/cm^2 and the “Ga mass detected, full thickness human skin” value ([2]; Passive 0 h, 1.5% w/v) was 0.07 ± 0.036 mg. For the same compound, the “Ga mass detected … for binding” value ([2]; Passive 0 h, 1.5% w/v) was 0.111 ± 0.035 mg, the “Ga mass detected per skin surface area” value ([2]; Passive 0 h, 1.5% w/v, listed as Ga) was 0.178 ± 0.058 mg/cm^2 and the “Ga mass detected per skin surface area” value ([2]; Passive 0 h, 1.5% w/v) was 0.178±0.058 mg/cm^2. For the same compound, the “Ga mass detected, full thickness human skin” value ([2]; Passive 60 h, 1.5% w/v) was 0.0745 ± 0.108 mg, the “Ga mass detected … for binding” value ([2]; Passive 60 h, 1.5% w/v) was 0.137 ± 0.109 mg and the “Ga mass detected per skin surface area” value ([2]; Passive 60 h, 1.5% w/v, listed as Ga) was 0.221 ± 0.176 mg/cm^2. The “Ga mass detected per skin surface area” value ([2]; Passive 60 h, 1.5% w/v) was 0.221±0.176 mg/cm^2, the “increase in skin gallium content, iontophoretic vs passive” value ([2]; after 60 hours, 1.5% w/v) was “three fold” and the “total gallium in the skin vs levels in the receiver compartment” value ([2]; both passive and iontophoretic cells) was “ten-fold higher”. For the same compound, the “increase in detected gallium level in the skin, iontophoresis vs passive” value ([2]; immediately after iontophoresis) was 12%, the “increase in gallium flux with 60 min iontophoresis compared to passive” value ([2]; receiver compartment and recovery from the skin) was “approximate three-fold increase” and the “ITP Ga skin deposition 24 h” value ([3]; Anodal, 60 min ITP then 24 h) was 1.888±1.159 mg/cm^2. The “ITP Ga skin deposition 60 min” value ([3]; Anodal, 60 min of 615 μA/cm^2 ITP) was 1.203±0.248 mg/cm^2, the “60 min passive skin deposition” value ([3]; passive, 60 min) was 0.288±0.258 mg/cm^2 and the “Ga in the receptor” value [4] was “not detected”. For the same compound, the gallium skin deposition (0.15% in 0.05M citrate buffer, pH 2, cathodal 0.3 mA/cm^2 15 min) was 277.90 ± 51.24 ng/mg, the gallium skin deposition (0.15% in 0.05M citrate buffer, pH 3, cathodal 0.3 mA/cm^2 15 min) was 113.16 ± 17.65 ng/mg and the gallium skin deposition (0.15% in 0.05M citrate buffer, pH 4, cathodal 0.3 mA/cm^2 15 min) was 60.5 ± 21.11 ng/mg. The gallium skin deposition (0.15% in 0.05M citrate buffer, pH 6, cathodal 0.3 mA/cm^2 15 min) was 51.16 ± 6.65 ng/mg, the “maximum skin deposition expressed as concentration” value (16.6% gallium nitrate in 1M citrate at pH 8, 0.3 mA/cm^2 for 15 min) was 0.78 mg/mL and the gallium skin deposition (16.6% in 0.1 M citrate buffer, pH 2, anodal) was 91.74 ± 13.09 ng/mg. It also gave a gallium skin deposition (16.6% in 0.1 M citrate buffer, pH 4, anodal) of 74.42 ± 22.31 ng/mg, a gallium skin deposition (16.6% in 0.1 M citrate buffer, pH 6, anodal) of 62.19 ± 23.76 ng/mg and a gallium skin deposition (16.6% in 0.1 M citrate buffer, pH 6, cathodal) of 99.62 ± 36.44 ng/mg. The gallium skin deposition (16.6% in 1M citrate buffer, pH 6, cathodal) was 163.72 ± 36.72 ng/mg, the gallium skin deposition (16.6% in 1M citrate buffer, pH 7, cathodal) was 250.49 ± 39.76 ng/mg and the gallium skin deposition (16.6% in 1M citrate buffer, pH 8, cathodal, nitrate hydrate) was 329.52 ± 36.10 ng/mg and 330 ng/mg. For the same compound, the maximum effective dose (collagen synthesis; nitrate hydrate) was 100 uM and 0.0256 mg/ml, the “effective range per mg tissue” value (collagen synthesis; per mg dry weight tissue, Goncalves et al., 2002, Bockman patent) was 1 to 1000 ng/mg and the “effective (desired) concentration range” value (collagen synthesis; published, Bockman et al. 1993, Goncalves et al. 2002) was 0.25 to 100 µM.
